This is an account of results in patent US20100166897A1, “COMBINATION OF MONOSACCHARIDES WITH ANTIOXIDANTS AND USE THEREOF” (L'OREAL, priority 2008, published 2010).

Each structure is given as a SMILES string.

Experiment [1] has as its system type I procollagen. In words: Synthesis of procollagen 1 in reconstructed skin (indirect immunofluorescence). It counts as cell-based, human. On the procedure:
Conventional detection via indirect immunofluorescence of type I procollagen in the dermis of the reconstructed skin was also performed on other series of frozen sections (anti-procoll 1 antibody (MAB 1912 Millipore)+FTIC-coupled conjugate (112-095-068 Jackson Immunoresearch)). In order to obtain bearings within the cutaneous architecture during the microscopic examination of the sections, the cell nuclei of the keratinocytes and fibroblasts are localized by staining them with propidium iodide, as described above. Three frozen sections are prepared at random on each reconstructed skin and on each section, and two microscopic fields (25× objective lens) are analysed is by fluorescence microscopy and photographed. The levels of fluorescence proportional to the amount of type I procollagen are compared between the control skin and the skin treated with rhamnose.

Experiment [2] concerns keratinocytes (HaCat line). In words: Proliferation of keratinocytes (HaCat line) in medium deficient in growth factors; Cyquant, Nile red and XTT probes. It counts as cell-based. The protocol: The keratinocytes (HaCat line) are cultured under two conditions: whole defined culture medium (standard condition) and culture medium deficient in growth factors. This deficient medium gives rise to a controlled delay in cell proliferation. Under these conditions, it is then possible to measure the effects of compounds capable of compensating for the deficiency in growth factors of the culture medium and thus of relaunching the cell multiplication and/or of stimulating cell metabolism.
The keratinocyte proliferation is measured by means of three markers on the same cell population: the level of DNA, which is proportional to the number of cells (Cyquant probe), the level of constituent polar lipids of cell membranes (Nile red probe) and the mitochondrial respiration, which reflects the general cell metabolism (XTT probe).
A general note: Tetrazolium dyes change colour on reduction, which living cells bring about.

Experiment [3] deals with dermal fibroblasts of the reconstructed skin. In words: Proliferation of fibroblasts in whole reconstructed skin (propidium iodide count on frozen sections). Conditions: 5 mM rhamnose; within 48 hours of treatment. In kind it is cell-based, human. The source says: Rhamnose was studied on a model of whole reconstructed skin in order to measure its anti-ageing efficacy on the dermal compartment.
Briefly, the model of reconstructed skin used is that described by Bell et al. (Bell E. et al., The reconstitution of living skin, J. Invest. Dermatol., 1983, July; 81): it includes a dermal equivalent on which is reconstructed a multistratified epidermis; the dermal equivalent is manufactured from acid-soluble collagen, culture medium containing serum and normal adult human fibroblasts. After 5 days of shrinkage, this equivalent is inoculated with keratinocytes and then cultured for 6 days in immersion and for 7 days in emersion in order to obtain a multistratified and differentiated epidermis having a horny layer.
The reconstructed skin is treated with 5 mM rhamnose for 2 days and 5 days in the culture medium; after the treatment, the reconstructed skins are included in Tissue Tek in order to produce frozen sections 7 μm thick with a cryostat. […] Three frozen sections are prepared at random on each reconstructed skin; on each section, two microscopic fields (25× objective lens) are analysed by fluorescence microscopy and photographed. The dermal fibroblasts are thus counted for each reconstructed skin on six images in total representing the six microscopic fields considered. […]

For `C[C@H](O)[C@H](O)[C@@H](O)[C@@H](O)C=O` [rhamnose], the “synthesis of type I procollagen by the fibroblasts” value in experiment [1] (1 mM rhamnose for 120 hours, reconstructed skin) is “greatly stimulated”. Further, the “green fluorescence (proportional to amount of type I procollagen) compared with control skin” value in experiment [1] (1 mM rhamnose for 120 hours, reconstructed skin section) is reported as “marked increase”. Moreover, the “procollagen 1 synthesis” value is recorded as “stimulation of procollagen 1 synthesis” in experiment [1] (1 mM, reconstructed skin) and “stimulation of procollagen 1 synthesis” in experiment [1] (5 mM, reconstructed skin). In addition, in experiment [2] (keratinocytes cultured in medium depleted in growth factor), the “number of cells compared with an untreated control” value is given as “higher number of cells”. The keratinocyte proliferation result in experiment [2] (keratinocytes cultured in medium depleted in growth factors) is “activate keratinocyte proliferation”. The “growth of the dermal fibroblasts of the reconstructed skin” value in experiment [3] is “stimulation of growth”.
